Test results reported in ChEMBL document CHEMBL1127902, “Synthesis of -estradiol-3-benzoate-17-(succinyl-12A-tetracycline): A potential bone-seeking estrogen” (Bioorg Med Chem Lett, 1994).

Assay: Percent of compound bound to bone mineral hydroxylapatite was determined […]
Conditions: Bone element

`C[C@]12CC[C@@H]3c4ccc(OC(=O)c5ccccc5)cc4CC[C@H]3[C@@H]1CC[C@@H]2O` and `C[C@]12CC[C@@H]3c4ccc(O)cc4CC[C@H]3[C@@H]1CC[C@@H]2O` cannot be ordered by Binding: under 1% for the first, under 1% for the second.

`CN(C)[C@@H]1C(O)=C(C(N)=O)C(=O)[C@@]2(O)C(O)=C3C(=O)c4c(O)cccc4[C@@](C)(O)[C@H]3C[C@@H]12` and `CN(C)[C@@H]1C(=O)C(C(N)=O)=C(O)[C@@]2(OC(=O)CCC(=O)O[C@H]3CC[C@H]4[C@@H]5CCc6cc(OC(=O)c7ccccc7)ccc6[C@H]5CC[C@]34C)C(O)=C3C(=O)c4c(O)cccc4[C@@](C)(O)C3CC12` (some centres undefined) cannot be ordered by Binding: over 99% for the first, over 99% for the second.
